Data reported in ChEMBL document CHEMBL1201862, “PubChem BioAssay data set” (2004).
Several values for one entry are separate records, joined by “and”; a condition that tells them apart may be missing. Identical values can stand only once.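 Assay format: 96-well plates, 48-hour exposure. GI50 marks 50% less growth.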 Activity calls are given as the source filed them. No stated cut-off is given here; in the data, active = GI50 up to about 1.1 µM and inactive = higher.

Assays:
Experiment in all cases: NCI anticancer screen, dose series, 48 h
HOP-62 = test system: HOP-62
M14 = test system: M14
SN12C = test system: SN12C
TK-10 = test system: TK-10
LOX IMVI = test system: LOX IMVI
IGROV-1 = test system: IGROV-1
SK-MEL-28 = test system: SK-MEL-28
OVCAR-8 = test system: OVCAR-8
COLO 205 = test system: COLO 205
HOP-92 = test system: HOP-92
NCI-H460 = test system: NCI-H460
HCT-15 = test system: HCT-15
T47D = test system: T47D
Hs-578T = test system: Hs-578T
BT-549 = test system: BT-549
CCRF-CEM = test system: CCRF-CEM
RXF 393 = test system: RXF 393
A498 = test system: A498

Compound | GI50 (HOP-62) | GI50 (M14) | GI50 (SN12C) | GI50 (TK-10) | GI50 (LOX IMVI) | GI50 (IGROV-1) | GI50 (SK-MEL-28) | GI50 (OVCAR-8) | GI50 (COLO 205) | GI50 (HOP-92) | GI50 (NCI-H460) | GI50 (HCT-15) [µM] | GI50 (T47D) | GI50 (Hs-578T) | GI50 (BT-549) | GI50 (CCRF-CEM) | GI50 (RXF 393) | GI50 (A498)
CC1=CC(=O)/C(=C/N2C(=O)CNC2=S)C(=O)O1 | > 100 µM (inactive) | > 100 µM (inactive) | > 100 µM (inactive) | > 100 µM (inactive) | > 100 µM (inactive) | > 100 µM (inactive) | > 100 µM (inactive) | > 100 µM (inactive) | > 100 µM (inactive) | > 100 µM (inactive) | > 100 µM (inactive) | > 100 | > 100 µM (inactive) | – | – | – | – | –
CCOC(=O)c1c(C)n(C)c2c1cc(O)c1[nH]c3c(c12)CCCC3 | 38.3 µM (inactive) | 13.2 µM (inactive) | 24.2 µM (inactive) | 22.9 µM (inactive) | 14.5 µM (inactive) | 12.7 µM (inactive) | 17.5 µM (inactive) | 21 µM (inactive) | 10.8 µM (inactive) | 0.0185 µM (active) | 20.5 µM (inactive) | 27.2 | 18.2 µM (inactive) | 32.7 µM (inactive) | 45.7 µM (inactive) | 20.3 µM (inactive) | – | –
CCS(=O)(=O)c1c2cc(OC)ccc2nc2ccc(OC)cc12 | > 100 µM (inactive) | > 100 µM (inactive) | > 100 µM (inactive) | > 100 µM (inactive) | > 100 µM (inactive) | > 100 µM (inactive) | > 100 µM (inactive) | > 100 µM (inactive) | > 100 µM (inactive) | > 100 µM (inactive) | > 100 µM (inactive) | > 100 | > 100 µM (inactive) | – | – | > 100 µM (inactive) | > 100 µM (inactive) | > 100 µM (inactive)
O[C@H]1[C@H](O)[C@@H](O)[C@@]2(O)C[C@@H](O)[C@@H]1N2 | > 100 µM (inactive) | > 100 µM (inactive) | > 100 µM (inactive) | > 100 µM (inactive) | > 100 µM (inactive) | > 100 µM (inactive) | > 100 µM (inactive) | > 100 µM (inactive) | > 100 µM (inactive) | > 100 µM (inactive) | > 100 µM (inactive) | > 100 | > 100 µM (inactive) | > 100 µM (inactive) | – | > 100 µM (inactive) | > 100 µM (inactive) | > 100 µM (inactive)
O=C1/C(=C/c2ccc(OC(=O)c3ccc(Cl)cc3)cc2)CCC/C1=C\c1ccc(OC(=O)c2ccc(Cl)cc2)cc1 | 19.4 µM (inactive) | > 100 µM (inactive) | > 100 µM (inactive) | 94.8 µM (inactive) | > 100 µM (inactive) | > 100 µM (inactive) | > 100 µM (inactive) | > 100 µM (inactive) | > 100 µM (inactive) | > 100 µM (inactive) | > 100 µM (inactive) | > 100 | > 100 µM (inactive) | 23.8 µM (inactive) | > 100 µM (inactive) | > 100 µM (inactive) | – | –
CCOC(=O)C(Cc1ccc(OC(=O)OC(C)(C)C)cc1)NC(=O)OC(C)(C)C (configuration not stated) | > 100 µM (inactive) | 26.5 µM (inactive) | 44.8 µM (inactive) | 71.1 µM (inactive) | 44.1 µM (inactive) | 50.1 µM (inactive) | > 100 µM (inactive) | 37.4 µM (inactive) | 39.7 µM (inactive) | – | > 100 µM (inactive) | > 100 | 29 µM (inactive) | 47.5 µM (inactive) | > 100 µM (inactive) | 21.9 µM (inactive) | 53.2 µM (inactive) | –
CC(=O)OCC1OC(n2c(C)c(C(C)=O)c(-c3ccco3)c(C#N)c2=S)C(OC(C)=O)C(OC(C)=O)C1OC(C)=O (configuration not stated) | > 100 µM (inactive) | > 100 µM (inactive) | > 100 µM (inactive) | > 100 µM (inactive) | 64.3 µM (inactive) | – | > 100 µM (inactive) | > 100 µM (inactive) | > 100 µM (inactive) | 15.6 µM (inactive) | > 100 µM (inactive) | > 100 | > 100 µM (inactive) | – | – | > 100 µM (inactive) and 53.2 µM (inactive) | > 100 µM (inactive) | 85.1 µM (inactive)
C/C(=C/C(=O)Nn1c(Cc2ccccc2)n[nH]c1=O)C(=O)O | > 100 µM (inactive) | > 100 µM (inactive) | > 100 µM (inactive) | > 100 µM (inactive) | > 100 µM (inactive) | > 100 µM (inactive) | > 100 µM (inactive) | > 100 µM (inactive) | > 100 µM (inactive) | – | > 100 µM (inactive) | > 100 | > 100 µM (inactive) | > 100 µM (inactive) | > 100 µM (inactive) | > 100 µM (inactive) | > 100 µM (inactive) | –
CCOC(=O)C(=[N+]=[N-])C(=O)C1(C(=O)OCC)CCN(C(=O)c2ccccc2)C1=O (configuration not stated) | > 100 µM (inactive) | > 100 µM (inactive) | > 100 µM (inactive) | > 100 µM (inactive) | > 100 µM (inactive) | > 100 µM (inactive) | – | > 100 µM (inactive) | > 100 µM (inactive) | > 100 µM (inactive) | > 100 µM (inactive) | > 100 | > 100 µM (inactive) | > 100 µM (inactive) | – | > 100 µM (inactive) | > 100 µM (inactive) | > 100 µM (inactive)
Nc1c(Br)cc(-c2cc(Br)c(N)c(Br)c2)cc1Br | 66.1 µM (inactive) | > 100 µM (inactive) | > 100 µM (inactive) | > 100 µM (inactive) | > 100 µM (inactive) | > 100 µM (inactive) | > 100 µM (inactive) | > 100 µM (inactive) | > 100 µM (inactive) | > 100 µM (inactive) | > 100 µM (inactive) | – | > 100 µM (inactive) | 73.1 µM (inactive) | – | > 100 µM (inactive) | 33.6 µM (inactive) | –
O=C1/C(=C/c2ccc(Cl)cc2)N=C(c2ccccc2)N1C1Nc2cc3c(cc2S1)NC(N1C(=O)/C(=C/c2ccc(Cl)cc2)N=C1c1ccccc1)S3 (configuration not stated) | 90.2 µM (inactive) | > 100 µM (inactive) | – | > 100 µM (inactive) | 31.7 µM (inactive) | 47.6 µM (inactive) | > 100 µM (inactive) | 39.1 µM (inactive) | – | 48.6 µM (inactive) | 30.4 µM (inactive) | 49 | 28.8 µM (inactive) | 35.2 µM (inactive) | – | 11.5 µM (inactive) | 76.6 µM (inactive) | > 100 µM (inactive)
COc1ccc(/C=C2/C(=O)N(/C=C3\C(=O)Oc4ccccc4C3=O)/C(=N/C(C)=O)N2C)cc1OC | > 100 µM (inactive) | > 100 µM (inactive) | > 100 µM (inactive) | – | > 100 µM (inactive) | > 100 µM (inactive) | > 100 µM (inactive) | > 100 µM (inactive) | > 100 µM (inactive) | – | > 100 µM (inactive) | > 100 | > 100 µM (inactive) | > 100 µM (inactive) | – | > 100 µM (inactive) | > 100 µM (inactive) | –
CC(C)(C)NCc1cc(C(C)(C)C)cc(-c2ccc(Cl)cc2)c1O | 6.14 µM (inactive) | 15 µM (inactive) | 15.2 µM (inactive) | 12 µM (inactive) | – | 11.2 µM (inactive) | 13.8 µM (inactive) | – | 10.7 µM (inactive) | 14.3 µM (inactive) | 12.5 µM (inactive) | 11 | – | 13.3 µM (inactive) | 13.7 µM (inactive) | – | – | –
C/C(=C\COP(=O)(O)OP(=O)(O)O)CC/C=C(\C)CNc1c(F)c(F)c(F)c(F)c1F | > 100 µM (inactive) | > 100 µM (inactive) | > 56.1 µM (inactive) | > 51.1 µM (inactive) | > 100 µM (inactive) | > 86.3 µM (inactive) | > 100 µM (inactive) | > 64.3 µM (inactive) | > 100 µM (inactive) | 82.2 µM (inactive) | > 100 µM (inactive) | > 100 | > 100 µM (inactive) | 31 µM (inactive) | – | 0.126 µM (active) | > 22.9 µM (inactive) | –
c1cc2ccc3cc4ncccc4c4ccc(c1)c2c34 | 19.9 µM (inactive) | 71.6 µM (inactive) | 31.4 µM (inactive) | 22.8 µM (inactive) | 12.1 µM (inactive) | 1.32 µM (inactive) | 43.1 µM (inactive) | 6.82 µM (inactive) | 9.82 µM (inactive) | 17.4 µM (inactive) | 5.05 µM (inactive) | 7.73 | 3.36 µM (inactive) | > 100 µM (inactive) | – | 19.7 µM (inactive) | 46.8 µM (inactive) | –
O=C(NCc1ccccc1)c1cnc(Cl)cn1 | – | 60.8 µM (inactive) | > 100 µM (inactive) | > 100 µM (inactive) | 28.8 µM (inactive) | 42.8 µM (inactive) | > 100 µM (inactive) | 52.4 µM (inactive) | > 100 µM (inactive) | 13.7 µM (inactive) | > 100 µM (inactive) | 23.1 | 74 µM (inactive) | 43.2 µM (inactive) | – | 23.1 µM (inactive) | > 100 µM (inactive) | > 100 µM (inactive)
Cc1ccc(SCC(OCn2cnc3c(N)ncnc32)[C@H](C)F)cc1 (some centres not stated) | > 100 µM (inactive) | > 100 µM (inactive) | > 100 µM (inactive) | > 100 µM (inactive) | > 100 µM (inactive) | > 100 µM (inactive) | > 100 µM (inactive) | > 100 µM (inactive) | > 100 µM (inactive) | 54.5 µM (inactive) | > 100 µM (inactive) | > 100 | > 100 µM (inactive) | > 100 µM (inactive) | 40.9 µM (inactive) | > 100 µM (inactive) | – | –
Cc1ccc(S(=O)(=O)N2C3C=CC(C3)[C@@H]2C(Cl)(Cl)Cl)cc1 (some centres not stated) | 10.4 µM (inactive) | 14.4 µM (inactive) | 24.2 µM (inactive) | 18.7 µM (inactive) | 18.5 µM (inactive) | 19.6 µM (inactive) | 18.2 µM (inactive) | 15.7 µM (inactive) | 20.6 µM (inactive) | 10.1 µM (inactive) | 6.75 µM (inactive) | 19.1 | 10.7 µM (inactive) | 5.07 µM (inactive) | 16.4 µM (inactive) | 17 µM (inactive) | – | –
